# Patent US20260092074A1, “Annelated Pyridines as Steroidogenesis Inhibitors, Preparation Method and Use Thereof” (Guangzhou Vinnocent Pharmaceutical Limited, priority 2022, published 2026)
# Columns and labels:
# [1] = target: T1, human CYP11B1 (Homo sapiens, UniProt P15538); experiment: Inhibition of hCYP11B1 in transfected V79 cells; type: cell-based; settings: hamster V79 cells expressing human CYP11B1; substrate 11-deoxycortisol 200 nM
# T1 construct: expressed in transfected cells
# T1 sequence (P15538 25-503): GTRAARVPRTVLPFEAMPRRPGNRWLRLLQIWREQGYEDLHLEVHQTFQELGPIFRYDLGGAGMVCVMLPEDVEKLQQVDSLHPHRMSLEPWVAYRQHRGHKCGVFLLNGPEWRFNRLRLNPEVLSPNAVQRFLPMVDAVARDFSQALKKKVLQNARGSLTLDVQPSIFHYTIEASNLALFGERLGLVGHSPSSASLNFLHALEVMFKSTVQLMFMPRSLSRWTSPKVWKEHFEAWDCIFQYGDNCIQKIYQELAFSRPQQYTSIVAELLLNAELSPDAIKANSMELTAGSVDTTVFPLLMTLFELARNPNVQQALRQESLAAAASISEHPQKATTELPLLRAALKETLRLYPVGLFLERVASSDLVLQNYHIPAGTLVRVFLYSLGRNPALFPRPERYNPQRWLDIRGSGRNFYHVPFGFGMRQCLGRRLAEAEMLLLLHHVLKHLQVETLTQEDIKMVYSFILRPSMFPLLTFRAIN
# Procedure, shortened: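 V79 hamster cells stably expressing human CYP11B1 and rat NADPH-P450 reductase were preincubated with compounds for 2 h. 11-Deoxycortisol (200 nM) was then added as substrate for 30 min before ethyl acetate quench. Substrate and product were quantified by LC-MS/MS or HPLC at 260 nm, and IC50 was derived from percent inhibition.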
# [2] = target: T2, human CYP11B2 (Homo sapiens, UniProt P19099); experiment: Inhibition of hCYP11B2 in transfected V79 cells; type: cell-based; settings: hamster V79 cells expressing human CYP11B2; substrate 11-deoxycorticosterone 200 nM
# T2 construct: expressed in transfected cells
# T2 sequence (P19099 25-503): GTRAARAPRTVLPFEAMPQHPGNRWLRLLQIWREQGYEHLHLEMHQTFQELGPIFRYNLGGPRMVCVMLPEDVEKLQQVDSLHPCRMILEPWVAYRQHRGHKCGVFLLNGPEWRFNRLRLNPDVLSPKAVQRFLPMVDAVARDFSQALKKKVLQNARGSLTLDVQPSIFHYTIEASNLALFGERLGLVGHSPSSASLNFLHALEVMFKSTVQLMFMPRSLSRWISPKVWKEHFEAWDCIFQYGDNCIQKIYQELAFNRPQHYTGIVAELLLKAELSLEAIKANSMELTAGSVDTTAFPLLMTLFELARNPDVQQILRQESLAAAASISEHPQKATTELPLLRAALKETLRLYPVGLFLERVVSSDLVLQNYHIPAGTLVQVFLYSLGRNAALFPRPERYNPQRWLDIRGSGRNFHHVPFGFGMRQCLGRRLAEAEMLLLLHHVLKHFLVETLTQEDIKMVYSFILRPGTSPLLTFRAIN
# Procedure, shortened: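 Hamster V79 cells stably co-expressing human CYP11B2 and rat NADPH-P450 reductase were pre-incubated with compounds for 2 hours, then given 200 nM 11-deoxycorticosterone for 30 minutes before ethyl acetate quench. Substrate and product were quantified by LC-MS/MS or HPLC at 260 nm, and IC50 was derived from percent inhibition.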
SMILES,IC50 [1] [nM],IC50 [2] [nM]
"N#Cc1ccc(-c2cncc3c2ccn3S(=O)(=O)c2cccc(Cl)c2)cc1 [E11, 4-(1-((3-Chlorophenyl)sulfonyl)-1H-pyrrolo[2,3-c]pyridin-4-yl)benzonitrile]",0.2,0.1
"N#Cc1ccc(-c2cncc3c2ccn3S(=O)(=O)c2ccc(C#N)cc2)cc1 [E14, 4-((4-(4-Cyanophenyl)-1H-pyrrolo[2,3-c]pyridin-1-yl)sulfonyl)benzonitrile]",0.5,0.08
"N#Cc1ccc(-c2cncc3c2ccn3S(=O)(=O)c2cccc3ccccc23)cc1 [E15, 4-(1-(Naphthalen-1-ylsulfonyl)-1H-pyrrolo[2,3-c]pyridin-4-yl)benzonitrile]",0.7,0.4
"N#Cc1ccc(-c2cncc3c2ccn3S(=O)(=O)c2ccc3ccccc3c2)cc1 [E16, 4-(1-(Naphthalen-2-ylsulfonyl)-1H-pyrrolo[2,3-c]pyridin-4-yl)benzonitrile]",0.6,0.1
"N#Cc1ccc(-c2cncc3c2ccn3S(=O)(=O)c2ccc(Cl)nc2)cc1 [E18, 4-(1-((6-Chloropyridin-3-yl)sulfonyl)-1H-pyrrolo[2,3-c]pyridin-4-yl)benzonitrile]",3.8,1.2
"N#Cc1ccc(-c2cncc3c2ccn3C(=O)c2c(F)c(F)c(F)c(F)c2F)cc1 [E19, 4-(1-(Perfluorobenzoyl)-1H-pyrrolo[2,3-c]pyridin-4-yl)benzonitrile]",2.9,2.5
"N#Cc1ccc(-c2cncc3c2ccn3C(=O)c2ccc(C(F)(F)F)cc2)cc1 [E20, 4-(1-(4-(Trifluoromethyl)benzoyl)-1H-pyrrolo[2,3-c]pyridin-4-yl)benzonitrile]",65,0.8
"N#Cc1ccc(-c2cncc3c2ccn3C(=O)c2ccccc2I)cc1 [E21, 4-(1-(2-iodobenzoyl)-1H-pyrrolo[2,3-c]pyridin-4-yl)benzonitrile]",5,4
"N#Cc1ccc(-c2cncc3c2ccn3C(=O)c2cccc([N+](=O)[O-])c2)cc1 [E22, 4-(1-(3-Nitrobenzoyl)-1H-pyrrolo[2,3-c]pyridin-4-yl)benzonitrile]",21,0.6
"N#Cc1ccc(-c2cncc3c2ccn3C(=O)c2cccc(C(F)(F)F)c2)cc1 [E23, 4-(1-(3-(Trifluoromethyl)benzoyl)-1H-pyrrolo[2,3-c]pyridin-4-yl)benzonitrile]",79,0.8
"COc1cccc(C(=O)n2ccc3c(-c4ccc(C#N)cc4)cncc32)c1 [E24, 4-(1-(3-Methoxybenzoyl)-1H-pyrrolo[2,3-c]pyridin-4-yl)benzonitrile]",82,1.9
"N#Cc1ccc(-c2cncc3c2ccn3C(=O)c2ccccc2C(F)(F)F)cc1 [E26, 4-(1-(2-(Trifluoromethyl)benzoyl)-1H-pyrrolo[2,3-c]pyridin-4-yl)benzonitrile]",88,3.9
"N#Cc1ccc(-c2cncc3c2ccn3C(=O)c2ccc(F)cc2)cc1 [E30, 4-(1-(4-Fluorobenzoyl)-1H-pyrrolo[2,3-c]pyridin-4-yl)benzonitrile]",11,0.1
"O=C(c1ccc(F)cc1)n1ccc2c(-c3cc4ccccc4s3)cncc21 [E31, (4-(Benzo[b]thiophen-2-yl)-1H-pyrrolo[2,3-c]pyridin-1-yl)(4-fluorophenyl)methanone]",635,10
"O=C(c1ccc(F)cc1)n1ccc2c(-c3cc4ccccc4o3)cncc21 [E32, (4-(Benzofuran-2-yl)-1H-pyrrolo[2,3-c]pyridin-1-yl)(4-fluorophenyl)methanone]",269,13
"O=C(c1ccc(F)cc1)n1ccc2c(-c3ccc4occc4c3)cncc21 [E33, (4-(Benzofuran-5-yl)-1H-pyrrolo[2,3-c]pyridin-1-yl)(4-fluorophenyl)methanone]",673,32
"Cn1ncc2ccc(-c3cncc4c3ccn4C(=O)c3ccc(F)cc3)cc21 [E35, (4-Fluorophenyl)(4-(1-methyl-1H-indazol-6-yl)-1H-pyrrolo[2,3-c]pyridin-1-yl)methanone]",857,17
"O=C(c1ccc(F)cc1)n1ccc2c(-c3ccc4ncoc4c3)cncc21 [E38, (4-(Benzo[d]oxazol-6-yl)-1H-pyrrolo[2,3-c]pyridin-1-yl)(4-fluorophenyl)methanone]",49,8
"O=C(c1ccc(F)cc1)n1ccc2c(-c3ccn4ccnc4c3)cncc21 [E39, (4-Fluorophenyl)(4-(imidazo[1,2-a]pyridin-7-yl)-1H-pyrrolo[2,3-c]pyridin-1-yl)methanone]",678,12

# Further molecules by falling IC50 [1], results first:
IC50 [1] [nM],IC50 [2] [nM],SMILES
1980,29,"O=C(c1ccc(F)cc1)n1ccc2c(-c3ccc4ncsc4c3)cncc21 [E36, (4-(Benzo[d]thiazol-6-yl)-1H-pyrrolo[2,3-c]pyridin-1-yl)(4-fluorophenyl)methanone]"
455,0.6,"O=C(c1ccc(F)cc1)n1ccc2c(-c3ccc4nccn4c3)cncc21 [E37, (4-Fluorophenyl)(4-(imidazo[1,2-a]pyridin-6-yl)-1H-pyrrolo[2,3-c]pyridin-1-yl)methanone]"
409,372,"Cn1c(=O)c(=O)[nH]c2cncc(-c3ccc(C#N)cc3)c21 [N1, 4-(1-Methyl-2,3-dioxo-1,2,3,4-tetrahydropyrido[3,4-b]pyrazin-8-yl)benzonitrile]"
375,5,"O=C(c1ccc(F)cc1)n1ccc2c(-c3cc4ccccc4[nH]3)cncc21 [E34, (4-(1H-Indol-2-yl)-1H-pyrrolo[2,3-c]pyridin-1-yl)(4-fluorophenyl)methanone]"
98,2.1,"COc1ccccc1C(=O)n1ccc2c(-c3ccc(C#N)cc3)cncc21 [E25, 4-(1-(2-Methoxybenzoyl)-1H-pyrrolo[2,3-c]pyridin-4-yl)benzonitrile]"
73,1.5,"Cc1ccccc1C(=O)n1ccc2c(-c3ccc(C#N)cc3)cncc21 [E27, 4-(1-(2-Methylbenzoyl)-1H-pyrrolo[2,3-c]pyridin-4-yl)benzonitrile]"
17,2.1,"N#Cc1ccc(-c2cncc3c2ccn3C(=O)c2ccccc2F)cc1 [E28, 4-(1-(2-Fluorobenzoyl)-1H-pyrrolo[2,3-c]pyridin-4-yl)benzonitrile]"
9,2.5,"N#Cc1ccc(-c2cncc3c2ccn3C(=O)c2ccccc2[N+](=O)[O-])cc1 [E29, 4-(1-(2-Nitrobenzoyl)-1H-pyrrolo[2,3-c]pyridin-4-yl)benzonitrile]"
0.7,0.1,"N#Cc1ccc(-c2cncc3c2ccn3S(=O)(=O)c2cccs2)cc1 [E17, 4-(1-(Thiophen-2-ylsulfonyl)-1H-pyrrolo[2,3-c]pyridin-4-yl)benzonitrile]"
0.6,0.1,"N#Cc1ccc(-c2cncc3c2ccn3S(=O)(=O)c2ccc(Cl)cc2)cc1 [E8, 4-(1-((4-Chlorophenyl)sulfonyl)-1H-pyrrolo[2,3-c]pyridin-4-yl)benzonitrile]"
0.5,0.3,"N#Cc1ccc(-c2cncc3c2ccn3S(=O)(=O)c2cccc(F)c2)cc1 [E12, 4-(1-((3-Fluorophenyl)sulfonyl)-1H-pyrrolo[2,3-c]pyridin-4-yl)benzonitrile]"
0.5,0.3,"N#Cc1ccc(-c2cncc3c2ccn3S(=O)(=O)c2cccc([N+](=O)[O-])c2)cc1 [E13, 4-(1-((3-Nitrophenyl)sulfonyl)-1H-pyrrolo[2,3-c]pyridin-4-yl)benzonitrile]"
0.3,0.1,"COc1ccc(S(=O)(=O)n2ccc3c(-c4ccc(C#N)cc4)cncc32)cc1 [E9, 4-(1-((4-Methoxyphenyl)sulfonyl)-1H-pyrrolo[2,3-c]pyridin-4-yl)benzonitrile]"
0.3,0.6,"N#Cc1ccc(-c2cncc3c2ccn3S(=O)(=O)c2cccc(C#N)c2)cc1 [E10, 3-((4-(4-Cyanophenyl)-1H-pyrrolo[2,3-c]pyridin-1-yl)sulfonyl)benzonitrile]"
